In ChEMBL document CHEMBL3507680, “University of Dundee, Gates Library screen for HepG2 cell viability”:

test: Human HepG2 cell viability assay in 384 well format; assay type: toxicity, cell-based; design: dose 125 nL, time 70.5 hour; concentration not given beside the values; conditions: HepG2 cells, read-out: Inhibition

| Compound | cytotoxicity at 70.5 h [%] |
| --- | --- |
| CCOC1CC2(CCN(Cc3cnn(C)c3)CC2)c2ccc(C)cc21 (stereo unspecified) | 1.09 |
| CC(NC(=O)CNc1cc2c(cc1Cl)OCCO2)c1ccco1 (stereo unspecified) | -8.18 |
| O=C(c1ccn(COc2ccc(F)cc2)n1)N1CCCCCC1 | -3.63 |
| CN(C)CCO[C@H]1CN(C(=O)c2ccc[nH]2)[C@@H]2COC[C@H]12 | -11.1 |
| O=C(C(CNCc1ccccc1O)c1ccccc1)N1CCOCC1 (stereo unspecified) | -2.58 |
| c1cncc(C2COC3(CCN(Cc4ccsc4)CC3)C2)c1 (stereo unspecified) | -3.18 |
| Cn1cc(CN2CCCCC2c2ccc(-c3cccc(F)c3)nc2)cn1 (stereo unspecified) | -1.71 |
| CCN(Cc1nc(COC)no1)C[C@]1(O)CCCN2CCCC[C@@H]21 | -10.1 |
| Cc1cc(CN2CCN(Cc3ccc(C#N)cc3OC(F)F)CC2)no1 | 18.7 |
| COCc1ccccc1C(=O)NCC(c1c(F)cccc1F)N(C)C (stereo unspecified) | 0.326 |
| O=C(CCC1CC1)N1C[C@@H](CN2CCCC2)[C@@H](CO)C1 | -13.2 |
| CCn1c(CN2CCCC2)nnc1C1CCN(Cc2cc(C)no2)CC1 | -6.8 |
| Cc1nc(CN2C(=O)COC3(CCN(Cc4nccs4)CC3)C2C)cs1 (stereo unspecified) | -6.92 |
| O=C([C@H]1C[C@H]2OCC[C@H]2N(CC2CC2)C1)N1CCCCO1 | -4.54 |
| CCCN1CCN(C(=O)Cc2nc(-c3ccco3)oc2C)CC1 | -7.9 |
| O=C(Cn1ccc(=O)cc1)N1C[C@H]2CC[C@@H]1CN(c1ncccn1)C2 | -8.59 |
| CC(C)(C)CN1CCN(CC2CC2)C(CCO)C1 (stereo unspecified) | -0.19 |
| Cc1noc(C)c1C(=O)N1C[C@@H]2C[C@@H](c3ccncn3)O[C@@H]2C1 | -3.05 |
| CCn1nc(C)c2nnn(CC(=O)Nc3ccccc3F)c(=O)c21 | -4.52 |
| CC(C)(C)OC(=O)N1CCN(C(=O)CCn2cccn2)CC1 | -4.56 |
| CCc1ccc(O)c(C(=O)N2CCN(CC(=O)N3CCCCC3)CC2)c1 | 11.8 |
| N#Cc1cccc(N2CC3(CCN(C(=O)c4cccnc4)C3)CC2=O)c1 (stereo unspecified) | -0.309 |
| Cc1nc(C2CCCN2Cc2nnc(Cc3ccccc3)o2)no1 (stereo unspecified) | 2.42 |

| Compound | cytotoxicity at 70.5 h [%] |
| --- | --- |
| O=C(CN(CC(O)c1ccc(F)cc1)C1CC1)Nc1cccnc1 (stereo unspecified) | -24.7 |
| Cc1cc(S(=O)(=O)N(CCO)C2CC2)ccc1F | -2.56 |
| CO[C@H]1CN(Cc2ccc(F)cc2)CC[C@@]12CCCO2 | 6.89 |
| COc1cc(F)ccc1N1CCN(Cc2nnc(C3CC3)o2)CC1 | -14.9 |
| O=C(COC1CCCC1)N1C[C@@H]2CN(Cc3ccoc3)CCO[C@@H]2C1 | -6.78 |
| O=C(C1CCCCC1)N1CCC(c2n[nH]c3nccnc23)CC1 | -2.95 |
| CC(C)CN1CCN(Cc2nc3ccccc3[nH]2)[C@H]2CS(=O)(=O)C[C@H]21 | -11.1 |
| COCCC(=O)Nc1cc(CC(C)(C)C)n[nH]1 | -6.88 |
| CCc1ncnc2c1CCN(S(=O)(=O)CC)CC2 | -7.89 |
| Cc1cccc(CS(=O)(=O)CC(=O)N(C)Cc2ccccc2F)c1 | -6.9 |
| O=c1c2ccccc2cnn1Cc1cncn1C1CC1 | -6.14 |
| CCc1nc(C2CCCN2Cc2cnc(C)cn2)no1 (stereo unspecified) | -3.7 |
| Cc1cc2ccccc2n1CCC(=O)NCCS(C)(=O)=O | -10.9 |
| CCC[C@H]1CN(Cc2cc(C#N)n(C)c2C)C[C@@H]1N(C)C | -7.07 |
| CN(Cc1ccncn1)C(=O)CCC(=O)NC1CCCC1 | -9.64 |
| Cc1nn(C)c(C)c1CC(=O)N1CCCN(c2cccnn2)CC1 | 5.97 |
| O=C(CCNC(=O)c1ccccc1N1CCOCC1)NC1CCCC1 | -1.96 |
| CC(=O)N1CCOC2(CCN(C(=O)C3CC3)CC2)C1 | -10.3 |
| CC1(C)[C@H]2CC=C(CN3CCCn4nc(CCC(=O)O)cc4C3)[C@@H]1C2 | -14.3 |
| CN1C(=O)CO[C@H]2CCN(C(=O)Cc3ccc4c(c3)CCCC4)CC[C@@H]21 | -4.91 |
| COCCCN1CC2(CCCN(c3ncc4nc[nH]c4n3)C2)CCC1=O (stereo unspecified) | -11.3 |
| CCc1cc(O)n2nc(C3CCN(C(=O)c4cccnc4)CC3)cc2n1 | 21.2 |
| Cn1ncc2c1CCCC2NCc1cccc(F)c1 (stereo unspecified) | -14.3 |

| Compound | cytotoxicity at 70.5 h [%] |
| --- | --- |
| CC(C)(C)c1nc(CN2CCC(c3nc4cc(Cl)ccc4o3)CC2)no1 | 15.4 |
| Cc1nc(NC2CCCC2)cc(C2CCN2C(=O)c2ccccn2)n1 (stereo unspecified) | -4.92 |
| Cc1cnc(CC2COCCN(C(=O)CN3CCOCC3)C2)cn1 (stereo unspecified) | -4.65 |
| COc1cc(NCc2cccnc2)c(-c2nn[nH]n2)cc1OC | -11.1 |
| Cc1ccc(CNC(=O)NCC(=O)NC(C)(C)C)c(N2CCCC2)c1 | -16.8 |
| CNc1nc(CNC(=O)Nc2ccc(OC)cc2C)cs1 | -7.81 |
| COc1ccc(C(=O)N2CCCCC2c2ccccn2)c(OC)n1 (stereo unspecified) | 15.4 |
| c1coc(CN2CCC3(CC2)CC(N2CCCC2)CO3)c1 (stereo unspecified) | 33.2 |
| CCCC(=O)N1CCC2(CC1)CC(NC(C)=O)c1ccccc1O2 (stereo unspecified) | -13.7 |
| Cc1cc(O)n2nc(C3CCN(C(=O)c4ccccn4)CC3)cc2n1 | 18.6 |
| COc1ccc2c(C)c(C(=O)NC3CCN(S(C)(=O)=O)CC3)oc2c1 | -2.46 |
| CC(C)(C)c1n[nH]c(C2CN(C(=O)c3csnn3)CCO2)n1 (stereo unspecified) | 22.6 |
| O=C(CCCc1ccc(F)cc1)N1C[C@@H](CN2CCOCC2)[C@@H](CO)C1 | -2.56 |
| Cn1c(SCC(=O)NC(C)(C#N)C2CC2)nc2ccccc21 (stereo unspecified) | 0.675 |
| COc1ccc(CNCc2ccnc(N3CCCCC3)c2)cc1OC | -4.98 |
| CCOc1ccccc1C(CC(=O)Nc1ccccc1)NC(C)=O (stereo unspecified) | -6.59 |
| O=c1ccc(-c2cccs2)nn1CN1CCN(Cc2ccccc2)CC1 | -13.1 |
| CCCNC(=O)CCC(=O)Nc1ccc(-n2cncn2)c(F)c1 | 36 |
| CNC(=O)CN1C(=O)CCC12CCCN(Cc1cccc(F)c1)C2 (stereo unspecified) | -6.75 |
| OCC1(NCc2cccc(-n3cccn3)c2)CCOCC1 | -1.42 |
| Cc1cc(C)n(CC(C)CNC(=O)CCc2ccco2)n1 (stereo unspecified) | -6.24 |
| Cc1ccc([C@@]2(O)CC[C@@H]3CN(S(=O)(=O)c4cn(C)nc4C)C[C@@H]32)cc1 | -2.34 |
| CN(CCCNC(=O)c1ccccc1F)CC(F)(F)F | -2.12 |

| Compound | cytotoxicity at 70.5 h [%] |
| --- | --- |
| CC(C)c1noc(-c2ccc(-n3cnc(C(=O)O)c3)nc2)n1 | -15.8 |
| Cc1ccc(N2C[C@@H]3CCCO[C@@H]3[C@H](N3CCCC3)C2)nn1 | 27 |
| Cc1ccn(-c2ccnc(N3CCN(c4ncccn4)CC3)n2)n1 | -9.69 |
| CC(C)Cc1cc(C(=O)N2CCC(Oc3cccnc3)CC2)n(C)n1 | -8.18 |
| Cn1nnc2c1C(COCC1CC1)CN(C(=O)Cc1ccsc1)C2 (stereo unspecified) | -0.74 |
| O=C(CC1CC1)N1CCO[C@H]2[C@H](OCCCn3cccn3)CC[C@@H]21 | -4.17 |
| CNCc1cc(F)ccc1Oc1ccc(Cl)cc1 | 2.13 |
| CN1CCC(CN2CCC3(CCCN(Cc4ccoc4)C3)C2=O)CC1 (stereo unspecified) | -10.7 |
| Cc1nc(C2(NCC(=O)NCCc3cccs3)CCCC2)no1 | -9.55 |
| CCn1ccnc1CN1CCCN(C(=O)c2cccc(C#N)c2)CC1 | -15.8 |
| CN(C)c1cc(CNC(=O)c2c(F)cccc2F)ccn1 | 1.27 |
| CN(C)CCNC(=O)C1Cc2nc(-c3ccsc3)sc2N1CC1CC1 (stereo unspecified) | -4.49 |
| CC(C)C1=NOC(c2nc(-c3cccc(Cl)c3)no2)C1 (stereo unspecified) | 8.08 |
| COCCNc1nc(NCCc2ccccc2)nc2nccnc12 | -1.44 |
| CCC(=O)c1ccc(OCC(=O)NCC2CC(CC)=NO2)cc1 (stereo unspecified) | -1.34 |
| CCN1C(=O)C2(CCOCC2)c2cc(NC(=O)c3cc(C)n[nH]3)ccc21 | -3.02 |
| CCC(C(=O)NCC1CCN(c2ccncc2)CC1)N(C)C (stereo unspecified) | -7.96 |
| CCOCCCC(=O)N(C)C(c1cccc(F)c1)c1ccccn1 (stereo unspecified) | -23.5 |
| O=C(NCCc1ccncc1)c1cccc(S(=O)(=O)NC2CC2)c1 | 1.33 |
| Cc1cnn(CCNCc2nnc(-c3ccc(F)cc3)o2)c1 | -10.4 |
| CCn1cc(CNC2CCN(c3cccc(C)c3C)CC2)cn1 | -6.01 |
| O=C(NC1CCCN(c2ccccc2Cl)C1)c1c[nH]nn1 (stereo unspecified) | -10.1 |
| OC(CNc1nc(C2CCCC2)nc2c1CCNCC2)C(F)(F)F (stereo unspecified) | -7.87 |

| Compound | cytotoxicity at 70.5 h [%] |
| --- | --- |
| CC(C1CCN(Cc2cnc(-c3cccs3)nc2)CC1)N(C)C (stereo unspecified) | 28.9 |
| CC(C)COc1ccc(C2SCC(=O)Nc3c2c(=O)[nH]n3C(C)C)cc1 (stereo unspecified) | -4.59 |
| Cc1cccc(NCC(=O)NC2(C#N)CCCC2)c1C(=O)N1CCCC1 | 2.28 |
| O=C(O)c1c(-c2cncnc2)ncc2c1CCN(CC1CCOC1)C2 (stereo unspecified) | -4.73 |
| CN(C)Cc1nc(C(C)(C)NC(=O)c2ccc3ccccc3c2)no1 | -6.87 |
| O=C1NCCCC12CCN(Cc1ccc(SC3CCCCC3)o1)C2 (stereo unspecified) | 5.14 |
| COCC1CN(Cc2ccncc2)Cc2nn(CC3CC3)cc21 (stereo unspecified) | -12.8 |
| O=C(NCc1cncc2c1CCN(Cc1ccc(F)cc1)C2)C1CC1 | -8.1 |
| CC(C)c1ncc(Cl)c(C(=O)N2CCCN3CCCC3C2)n1 (stereo unspecified) | -0.691 |
| Cc1nc(CN2C(=O)C[C@H]3[C@H]2CCN3C2CCOCC2)cs1 | -2.79 |
| Cc1nnc(CN(C)Cc2ccc(C(=O)Nc3sccc3C#N)cc2)o1 | 0.967 |
| Cc1nccn1CCCN1CCC2(CCC(=O)N(CC3CC3)C2)CC1 | -7.09 |
| COCCN(CCOC)c1ncc(C#N)cc1Cl | -15.8 |
| C[C@@H]1CN(Cc2nnc(-c3cccnc3)o2)CC[C@]1(C)O | 6.07 |
| COc1cccc(CN(C)CC(=O)NC2(C)CCS(=O)(=O)C2)c1 (stereo unspecified) | -15.4 |
| Cc1csc(CCCNC(=O)[C@H]2CNC[C@@H](C(=O)N3CCCC3)C2)n1 | -9.44 |
| CN1CCC(c2nnc(CN3CCCCC3)n2C)CC1 | -9.09 |
| O=C(NCCCN1CCCC1=O)c1ccc(-n2ccc3ccccc32)s1 | 1.6 |
| Cn1ncc2c1NC(=O)CC2c1cccs1 (stereo unspecified) | -4.29 |
